From article PMC9604066 (International Journal of Molecular Sciences, 2022)
Converted amounts (≈) assume the structure as drawn.

Legend:
[1] = test system: 17D vaccine strain of YFV; details: cited from earlier work
[2] = test system: YFV strain 17D (Stamaril) on Huh-7 cells; assay: microbe, parasite or virus in culture; type: cell-based, yellow fever virus; details: for EC50: Yellow fever virus, Huh-7
in vitro = details: human
yellow fever = details: rhesus monkey, in vivo; cited from earlier work

Structure (SMILES) | logP (physchem) | EC50 [2] [µM] | other results
C[C@@]1(O)[C@H](O)[C@@H](CO)O[C@H]1n1ccc(N)nc1=O [2-C-methylcytidine] |  |  | EC90 [1]: 0.32 µg/mL (≈ 1.24 µM); SI [1]: 141
CN1CC(=O)N(c2ccccc2)C1c1cc2cc(Cc3ccc4oc(C5N(C)CC(=O)N5c5ccccc5)cc4c3)ccc2o1 (stereo not drawn) [2a, (2″R,2‴R)-, (2″S,2‴S)-, and meso-(2″R,2‴S)-5,5′-Methylenebis[2-(N-methyl-3″-phenyl-4″-oxo-1″,3″-imidazolidin-2″-yl)benzofuran]] | 4.75 | > 133 | 
Cc1ccc(N2C(=O)CN(C)C2c2cc3cc(Cc4ccc5oc(C6N(C)CC(=O)N6c6ccc(C)cc6)cc5c4)ccc3o2)cc1 (stereo not drawn) [2b, (2″R,2‴R)-, (2″S,2‴S)-, and meso-(2″R,2‴S)-5,5′-Methylenebis(2-[N-methyl-3″-(4-methylphenyl)-4″-oxo-1″,3″-imidazolidin-2″-yl]benzofuran)] |  | > 160 | 
Cc1cccc(N2C(=O)CN(C)C2c2cc3cc(Cc4ccc5oc(C6N(C)CC(=O)N6c6cccc(C)c6C)cc5c4)ccc3o2)c1C (stereo not drawn) [2c, (2″R,2‴R)-, (2″S,2‴S)-, and meso-(2″R,2‴S)-5,5′-Methylenebis(2-[N-methyl-3″-(2,3-dimethylphenyl)-4″-oxo-1″,3″-imidazolidin-2″-yl]benzofuran)] | 3.77 | 6.75 | CC50 (in vitro): 41 µM
Cc1ccc(C)c(N2C(=O)CN(C)C2c2cc3cc(Cc4ccc5oc(C6N(C)CC(=O)N6c6cc(C)ccc6C)cc5c4)ccc3o2)c1 (stereo not drawn) [2d, (2″R,2‴R)-, (2″S,2‴S)-, and meso-(2″R,2‴S)-5,5′-Methylenebis(2-[N-methyl-3″-(2,5-dimethylphenyl)-4″-oxo-1″,3″-imidazolidin-2″-yl]benzofuran)] | 4.38 | 7.7 | SI [2]: 2.40; CC50 (in vitro): 18.5 µM
Cc1cc(C)cc(N2C(=O)CN(C)C2c2cc3cc(Cc4ccc5oc(C6N(C)CC(=O)N6c6cc(C)cc(C)c6)cc5c4)ccc3o2)c1 (stereo not drawn) [2e, (2″R,2‴R)-, (2″S,2‴S)-, and meso-(2″R,2‴S)-5,5′-Methylenebis[2-(N-methyl-3″-(3,5-dimethylphenyl)-4″-oxo-1″,3″-imidazolidin-2″-yl)benzofuran]] | 4.15 | 3.54 | CC50 (in vitro): 54.1 µM
COc1ccc(N2C(=O)CN(C)C2c2cc3cc(Cc4ccc5oc(C6N(C)CC(=O)N6c6ccc(OC)cc6)cc5c4)ccc3o2)cc1 (stereo not drawn) [2g, (2″R,2‴R)-, (2″S,2‴S)-, and meso-(2″R,2‴S)-5,5′-Methylenebis(2-[N-methyl-3″-(4-methoxyphenyl)-4″-oxo-1″,3″-imidazolidin-2″-yl]benzofuran)] | 4.25 | > 152 | 
CN1CC(=O)N(c2ccc(F)cc2)C1c1cc2cc(Cc3ccc4oc(C5N(C)CC(=O)N5c5ccc(F)cc5)cc4c3)ccc2o1 (stereo not drawn) [2h, (2″R,2‴R)-, (2″S,2‴S)-, and meso-(2″R,2‴S)-5,5′-Methylenebi(2-[N-methyl-3″-(4-fluorophenyl)-4″-oxo-1″,3″-imidazolidin-2″-yl]benzofuran)] | 4.6 | 23.5 | SI [2]: 1.63; CC50 (in vitro): 38.5 µM
CN1CC(=O)N(c2ccc(Cl)cc2)C1c1cc2cc(Cc3ccc4oc(C5N(C)CC(=O)N5c5ccc(Cl)cc5)cc4c3)ccc2o1 (stereo not drawn) [2i, (2″R,2‴R)-, (2″S,2‴S)-, and meso-(2″R,2‴S)-5,5′-Methylenebis(2-[N-methyl-3″-(4-chlorophenyl)-4″-oxo-1″,3″-imidazolidin-2″-yl]benzofuran)] |  | 14.4 | SI [2]: 0.85; CC50 (in vitro): 12.3 µM
CN1CC(=O)N(c2ccc(Br)cc2)C1c1cc2cc(Cc3ccc4oc(C5N(C)CC(=O)N5c5ccc(Br)cc5)cc4c3)ccc2o1 (stereo not drawn) [2j, (2″R,2‴R)-, (2″S,2‴S)-, and meso-(2″R,2‴S)-5,5′-Methylenebis(2-[N-methyl-3″-(4-bromophenyl)-4″-oxo-1″,3″-imidazolidin-2″-yl]benzofuran)] |  | > 133 | 
CN1CC(=O)N(c2cccc(C(F)(F)F)c2)C1c1cc2cc(Cc3ccc4oc(C5N(C)CC(=O)N5c5cccc(C(F)(F)F)c5)cc4c3)ccc2o1 (stereo not drawn) [2k, (2″R,2‴R)-, (2″S,2‴S)-, and meso-(2″R,2‴S)-5,5′-Methylenebis(2-[N-methyl-3″-(3-trifluoromethyl)phenyl-4″-oxo-1″,3″-imidazolidin-2″-yl]benzofuran)] | 5.16 | 8.89 | CC50 (in vitro): 75 µM
c1ccc(Cn2c(-c3cc4cc(Cc5ccc6oc(-c7nc8ccccc8n7Cc7ccccc7)cc6c5)ccc4o3)nc3ccccc32)cc1 [3a, 5,5′-Methylenebis[2-(1-benzylbenzimidazol-2-yl)benzofuran]] |  | > 114 | 
Cc1ccc(Cn2c(-c3cc4cc(Cc5ccc6oc(-c7nc8ccccc8n7Cc7ccc(C)cc7)cc6c5)ccc4o3)nc3ccccc32)cc1 [3b, 5,5′-Methylenebis(2-[1-(p-methylbenzyl)benzimidazol-2-yl]benzofuran)] |  | > 145 | 
COc1cccc(Cn2c(-c3cc4cc(Cc5ccc6oc(-c7nc8ccccc8n7Cc7cccc(OC)c7)cc6c5)ccc4o3)nc3ccccc32)c1 [3c, 5,5′-Methylenebis(2-[1-(m-methoxybenzyl)benzimidazol-2-yl]benzofuran)] |  | > 139 | 
COc1ccc(Cn2c(-c3cc4cc(Cc5ccc6oc(-c7nc8ccccc8n7Cc7ccc(OC)cc7)cc6c5)ccc4o3)nc3ccccc32)cc1 [3d, 5,5′-Methylenebis(2-[1-(p-methoxybenzyl)benzimidazol-2-yl]benzofuran)] |  | 27.7 | 
Fc1ccccc1Cn1c(-c2cc3cc(Cc4ccc5oc(-c6nc7ccccc7n6Cc6ccccc6F)cc5c4)ccc3o2)nc2ccccc21 [3e, 5,5′-Methylenebis(2-[1-(o-fluorobenzyl)benzimidazol-2-yl]benzofuran)] | 4.65 | > 21.5 | 
Fc1ccc(Cn2c(-c3cc4cc(Cc5ccc6oc(-c7nc8ccccc8n7Cc7ccc(F)cc7)cc6c5)ccc4o3)nc3ccccc32)cc1 [3f, 5,5′-Methylenebis(2-[1-(p-fluorobenzyl)benzimidazol-2-yl]benzofuran)] |  | 28.7 | 
Clc1ccccc1Cn1c(-c2cc3cc(Cc4ccc5oc(-c6nc7ccccc7n6Cc6ccccc6Cl)cc5c4)ccc3o2)nc2ccccc21 [3g, 5,5′-Methylenebis(2-[1-(o-chlorobenzyl)benzimidazol-2-yl]benzofuran)] |  | > 137 | 
Clc1ccc(Cn2c(-c3cc4cc(Cc5ccc6oc(-c7nc8ccccc8n7Cc7ccc(Cl)cc7)cc6c5)ccc4o3)nc3ccccc32)cc1 [3h, 5,5′-Methylenebis(2-[1-(p-chlorobenzyl)benzimidazol-2-yl]benzofuran)] |  | > 103 | 
Brc1cccc(Cn2c(-c3cc4cc(Cc5ccc6oc(-c7nc8ccccc8n7Cc7cccc(Br)c7)cc6c5)ccc4o3)nc3ccccc32)c1 [3i, 5,5′-Methylenebis(2-[1-(m-bromobenzyl)benzimidazol-2-yl]benzofuran)] |  | 91.6 | 
CC(C)n1c(-c2cc3cc(Cc4ccc5oc(-c6nc7ccccc7n6C(C)C)cc5c4)ccc3o2)nc2ccccc21 [3j, 5,5′-Methylenebis[2-(1-isopropylbenzimidazol-2-yl)benzofuran]] | 3.71 | 6.14 | CC50 (in vitro): 69.3 µM
c1ccc2c(c1)nc(-c1cc3cc(Cc4ccc5oc(-c6nc7ccccc7n6C6CCCC6)cc5c4)ccc3o1)n2C1CCCC1 [3k, 5,5′-Methylenebis[2-(1-cyclopentylbenzimidazol-2-yl)benzofuran]] |  | > 162 | 
c1ccc2c(c1)nc(-c1cc3cc(Cc4ccc5oc(-c6nc7ccccc7n6C6CCCCC6)cc5c4)ccc3o1)n2C1CCCCC1 [3l, 5,5′-Methylenebis[2-(1-cyclohexylbenzimidazol-2-yl)benzofuran]] |  | > 28.7 | 
NC(=O)c1ncn([C@@H]2O[C@H](CO)[C@@H](O)[C@H]2O)n1 [Ribavirin] |  |  | survival (yellow fever): lack of improved survival
O=Cc1cc2cc(Cc3ccc4oc(C=O)cc4c3)ccc2o1 [compound 7] | 3.75 | > 329 | activity towards YFV [2]: did not exhibit any activity
CCOC(=O)c1cc2cc(Cc3ccc4oc(C(=O)OCC)cc4c3)ccc2o1 [compound 10] |  | > 255 | activity towards YFV [2]: did not exhibit any activity
O=C(O)c1cc2cc(Cc3ccc4oc(C(=O)O)cc4c3)ccc2o1 [compound 11] |  | > 297 | activity towards YFV [2]: did not exhibit any activity
